The values that follow come from patent US20120016010A1, “RNA Interference Mediated Inhibition of BTB and CNC Homology 1, Basic Leucine Zipper Transcription Factor 1 (BACH1) Gene Expression Using Short Interfering Nucleic Acid (siNA)” (Merck Sharp & Dohme Corp, priority 2009, published 2012).

The subject of data set [1] is HMOX-1 mRNA. Briefly: HMOX-1 mRNA increase in response to Bach1 siNA in human A549 cells. Type of data set: cell-based. As to conditions: 24 hrs post-transfection, mean ± SD. The procedure:
A series of probes and primers were used to detect the various mRNA transcripts of the genes of Bach1, HMOX-1, and GAPDH in mouse and human cell lines. The assays were performed on an ABI 7900 instrument, according to the manufacturer's instructions. A TaqMan Gene Expression Master Mix (provided in the Cells-to-CTT™, Applied Biosystems, Cat # 4399002) was used. The PCR reactions were carried out at 50° C. for 2 min, 95° C. for 20 min followed by 40 cycles at 95° C. for 15 secs and 60° C. for 1 min
All calculations of IC50s were performed using SigmaPlot 10.0 software. The data were analyzed using the sigmoidal dose-response (variable slope) equation for simple ligand binding. In all of the calculations of the % knock-down, the calculation was made relative to the normalized level of expression of the gene of interest in the samples treated with the non-targeting control (Ctrl siNA) unless otherwise indicated.
For the statistical measures of significance for the HMOX-1 mRNA increase in response to Bach1 siNA treatment, a two-tailed Student's t-test on the dCt values for wells treated with the non-targeting control siNA compared with the dCt values for wells treated with the highest concentration of each respective active siNA, was performed.
Various siNAs were also evaluated for their potential to knock-down Bach1 protein. As no validated reagents were available to directly track changes in protein expression, this was done by assessing the increase in HMOX-1 mRNA in response to increasing doses of the active Bach1 siNAs.
The siNAs were tested at a single time point post-transfection (24 hrs). This was the time point at which the Bach1 mRNA levels had previously been determined. The non-targeting control siNA was also tested on each plate of samples and was found, across the six plates to show a maximum of 29±12% increase in the level of HMOX-1.
The comparison of the maximum percentage increase in HMOX-1 and EC50 and the maximum percentage decrease of Bach1 and IC50 are shown in Table 6. Table 6 also includes the measure of statistical significance for the increase in HMOX-1 mRNA levels in response to treatment with the respective Bach1 siNA.

Data set [2] concerns the target T1, TLR8 (Homo sapiens, UniProt Q9NR97).
T1 construct: expressed in transfected cells
T1 sequence (Q9NR97 27-1041): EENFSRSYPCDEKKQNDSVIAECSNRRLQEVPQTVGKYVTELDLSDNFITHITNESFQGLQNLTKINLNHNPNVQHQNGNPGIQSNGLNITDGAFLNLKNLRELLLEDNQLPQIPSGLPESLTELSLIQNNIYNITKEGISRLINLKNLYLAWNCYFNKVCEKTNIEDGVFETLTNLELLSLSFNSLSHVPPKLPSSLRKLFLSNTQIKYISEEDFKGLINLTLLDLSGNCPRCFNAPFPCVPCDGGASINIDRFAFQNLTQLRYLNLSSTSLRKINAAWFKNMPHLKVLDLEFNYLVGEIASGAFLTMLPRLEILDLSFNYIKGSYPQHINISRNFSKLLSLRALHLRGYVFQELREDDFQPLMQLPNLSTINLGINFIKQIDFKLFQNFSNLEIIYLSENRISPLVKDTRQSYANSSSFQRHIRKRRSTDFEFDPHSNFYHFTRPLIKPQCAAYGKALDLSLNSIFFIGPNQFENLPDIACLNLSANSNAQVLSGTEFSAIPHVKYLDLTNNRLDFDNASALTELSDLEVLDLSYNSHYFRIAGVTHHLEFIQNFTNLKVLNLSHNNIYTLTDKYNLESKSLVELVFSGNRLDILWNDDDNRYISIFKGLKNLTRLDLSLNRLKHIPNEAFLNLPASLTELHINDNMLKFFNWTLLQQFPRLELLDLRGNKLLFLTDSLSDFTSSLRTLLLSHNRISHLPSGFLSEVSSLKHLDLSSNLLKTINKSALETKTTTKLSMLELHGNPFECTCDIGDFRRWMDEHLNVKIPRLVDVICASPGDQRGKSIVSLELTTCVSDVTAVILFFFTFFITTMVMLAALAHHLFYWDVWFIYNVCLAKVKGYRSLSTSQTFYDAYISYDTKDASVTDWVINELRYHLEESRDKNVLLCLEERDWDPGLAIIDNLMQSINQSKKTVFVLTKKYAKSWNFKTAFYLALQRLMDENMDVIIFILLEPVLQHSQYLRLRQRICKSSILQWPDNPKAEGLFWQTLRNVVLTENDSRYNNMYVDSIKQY
The format is cell-based. The protocol:
Human U205-TLR7 and Human U205-TLR8 cells were grown at 37 degrees in the presence of 5% CO2 and were cultured in Dulbeco's modified Eagle's Medium (DMEM), 1% non essential amino acids, supplemented with fetal bovine serum at 10% and 100 ug/ml streptomycin and 100 u/ml penicillin. Stable expression of TLR7 and TLR8 was maintained by the addition of 300 ug/ml […].
TLR7 and TLR8 expressing U2OS osteosarcoma cells were seeded in 96-well plate format at a concentration of 2×10^4 cells/well 24 hours prior to transfection. Cells were transfected with the siNAs using DharmaFECT1 lipid transfection reagent using Resiquimod (R848) and the LyoVec-complexed, GU-rich oligonucleotide ssRNA40 respectively as controls (100 μl/well). (DharmaFECT1 was used as the delivery agent for the siNAs as it combines low immunostimulatory effects with high delivery efficiency.) The treatment media were replaced after 6 hours with antibiotic containing DMEM. Cells were harvested 24 hours following transfection. […] An agonist concentration range of 4-10 μg/ml was established since it caused optimal levels of IL8 mRNA expression for the assay.
TLR7 and TLR8 mediated immunostimulation was measured by the increase in IL8 mRNA levels when the siNAs were formulated with DharmaFect1 (Gibco BRL) and delivered to U2OS cells that were engineered to stably express TLR7 or TLR8. The cells were treated with the TLR7 and TLR8 agonists Resiquimod (R848) and ssRNA40/LyoVec respectively to act as positive controls for IL8 mRNA induction. IL8 mRNA levels were used as a biomarker of TLR7 and TLR8 mediated immunostimulation.

Consider “29947-DC (sense GGAAUCCUGCUUUCAGUUUTT; antisense AAACUGAAAGCAGGAUUCCUU; inverted abasic caps (B), 2'-modified nucleotides, further chemistry not given here)”, for which, in data set [1], the EC50 is 37.7 ± 21.5 pM and the “Maximum % Hmox-1 Increase in DRC” value amounted to 187 ± 71%. In data set [2], the “Immunostimulation TLR8 mediated in Human U2OS-TLR8 cells IL8 mRNA increase n = 4 individual expts” value is “No significant effect up to 100 nM” and the “TLR8 mediated immunostimulatory activity (IL8 mRNA induction)” value (from here on “TLR8 mediated immunostimulatory activity”) was “no TLR8 mediated immunostimulatory activity”.
Regarding “29956-DC (sense GUCUGAGUGUCCGUGGUUATT; antisense UAACCACGGACACUCAGACUU; inverted abasic caps (B), 2'-modified nucleotides, further chemistry not given here)”, in data set [1], the midpoint of the response, the EC50, lay at 30.9 ± 19.9 pM and the “Maximum % Hmox-1 Increase in DRC” value amounted to 308 ± 87%. Besides, in data set [2], the “Immunostimulation TLR8 mediated in Human U2OS-TLR8 cells IL8 mRNA increase n = 4 individual expts” value is recorded as “No significant effect up to 100 nM”.
The like results for “29957-DC (sense GCAGUUACUUCCACUCAAGTT; antisense CUUGAGUGGAAGUAACUGCUU; inverted abasic end caps, TT overhangs, modified nucleotides, further chemistry not given here)” were, in that order, 33.6 ± 20 pM, 213 ± 29% and “Upregulation up to 100 nM”.
“29961-DC (sense CUACACUGCUAAACUGAUUTT; antisense AAUCAGUUUAGCAGUGUAGUU; inverted abasic end caps, TT overhangs, modified nucleotides, further chemistry not given here)”: in data set [1], the midpoint of the response, the EC50, lay at 10.4 ± 10 pM and the “Maximum % Hmox-1 Increase in DRC” value amounted to 262 ± 87%. In data set [2], the “Immunostimulation TLR8 mediated in Human U2OS-TLR8 cells IL8 mRNA increase n = 4 individual expts” value is recorded as “No significant effect up to 100 nM” and the “TLR8 mediated immunostimulatory activity” value is given as “no TLR8 mediated immunostimulatory activity”.
The like results for “29964-DC (sense GAUUUGCAGGUGAUGUUAATT; antisense UUAACAUCACCUGCAAAUCUU; inverted abasic end caps, TT overhangs, modified nucleotides, further chemistry not given here)” were, in that order, 21.8 ± 15.5 pM, 240 ± 30%, “No significant effect up to 100 nM” and “no TLR8 mediated immunostimulatory activity”.
As for “29984-DC (sense GUUAAAGGAUUUGAACCUUTT; antisense AAGGUUCAAAUCCUUUAACUU; inverted abasic end caps, TT overhangs, modified nucleotides, further chemistry not given here)”, in data set [2], the “Immunostimulation TLR8 mediated in Human U2OS-TLR8 cells IL8 mRNA increase n = 4 individual expts” value is “No significant effect up to 100 nM” and the “TLR8 mediated immunostimulatory activity” value is “no TLR8 mediated immunostimulatory activity”.
As to “29988-DC (sense AUUUGAACCUUUAAUUCAGTT; antisense CUGAAUUAAAGGUUCAAAUUU; inverted abasic end caps, TT overhangs, modified nucleotides, further chemistry not given here)”, in data set [1], it took 38.2 ± 29.8 pM to reach a half-maximal effect (EC50) and the “Maximum % Hmox-1 Increase in DRC” value amounted to 190 ± 62%. In addition, in data set [2], the “Immunostimulation TLR8 mediated in Human U2OS-TLR8 cells IL8 mRNA increase n = 4 individual expts” value is on record as “No significant effect up to 100 nM” and the “TLR8 mediated immunostimulatory activity” value is “no TLR8 mediated immunostimulatory activity”.
